Source: paper PMC9934367, “Functional impact of subunit composition and compensation on Drosophila melanogaster nicotinic receptors–targets of neonicotinoids” (PLOS Genetics, 2023)

Tested on: D. melanogaster nAChRs
Experiment: Comparison of agonist activity between nAChRs expressed in X. laevis oocytes (one-way ANOVA, Kruskal-Wallis)
Format: cell-based
Outline: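 Agonist pEC50 values, derived from Hill fits of normalised peak currents, were compared across receptors by one-way ANOVA or Kruskal-Wallis. Currents came from oocytes clamped at −100 mV and perfused with atropine-containing saline (0.5 μM), 3–4 days after cRNA injection of fly nAChR subunits and co-factors.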

[1] = Dα1/Dα2/Dα3/Dβ1/Dβ2 vs. Dα1/Dα2/Dβ1/Dβ2/Dβ3
[2] = Dα1/Dα2/Dα3/Dβ1/Dβ2 vs. Dα1/Dα3/Dα4/Dβ1/Dβ2
[3] = Dα1/Dα2/Dα3/Dβ1/Dβ2 vs. Dα1/Dα3/Dβ1/Dβ2/Dβ3
[4] = Dα1/Dα2/Dα3/Dβ1/Dβ2 vs. Dα2/Dα3/Dα4/Dβ1/Dβ2
[5] = Dα1/Dα2/Dα3/Dβ1/Dβ2 vs. Dα2/Dα3/Dβ1/Dβ2/Dβ3
[6] = Dα1/Dα2/Dα3/Dβ1 vs. Dα1/Dα2/Dα3/Dβ1/Dβ2
[7] = Dα1/Dα2/Dα3/Dβ1 vs. Dα1/Dα2/Dβ1/Dβ2
[8] = Dα1/Dα2/Dα3/Dβ1 vs. Dα1/Dα3/Dβ1/Dβ2
[9] = Dα1/Dα2/Dα3/Dβ1 vs. Dα1/Dβ1/Dβ2
[10] = Dα1/Dα2/Dα3/Dβ1 vs. Dα2/Dα3/Dβ1/Dβ2
[11] = Dα1/Dα2/Dα3/Dβ1 vs. Dα3/Dβ1/Dβ2
[12] = Dα1/Dα2/Dβ1/Dβ2 vs. Dα1/Dα2/Dα3/Dβ1/Dβ2
[13] = Dα1/Dα2/Dβ1/Dβ2 vs. Dα2/Dα3/Dβ1/Dβ2
[14] = Dα1/Dα2/Dβ1 vs. Dα1/Dα2/Dα3/Dβ1
[15] = Dα1/Dα2/Dβ1 vs. Dα1/Dα2/Dα3/Dβ1/Dβ2
[16] = Dα1/Dα2/Dβ1 vs. Dα1/Dα2/Dβ1/Dβ2
[17] = Dα1/Dα2/Dβ1 vs. Dα1/Dα3/Dβ1/Dβ2
[18] = Dα1/Dα2/Dβ1 vs. Dα2/Dα3/Dβ1/Dβ2
[19] = Dα1/Dα3/Dβ1/Dβ2 vs. Dα1/Dα2/Dα3/Dβ1/Dβ2
[20] = Dα1/Dα3/Dβ1/Dβ2 vs. Dα1/Dα2/Dβ1/Dβ2
[21] = Dα1/Dα3/Dβ1/Dβ2 vs. Dα2/Dα3/Dβ1/Dβ2
[22] = Dα1/Dα3/Dβ1 vs. Dα1/Dα2/Dα3/Dβ1
[23] = Dα1/Dα3/Dβ1 vs. Dα1/Dα2/Dα3/Dβ1/Dβ2
[24] = Dα1/Dα3/Dβ1 vs. Dα1/Dα2/Dβ1/Dβ2
[25] = Dα1/Dα3/Dβ1 vs. Dα1/Dα3/Dβ1/Dβ2
[26] = Dα1/Dα3/Dβ1 vs. Dα2/Dα3/Dβ1/Dβ2
[27] = Dα1/Dβ1/Dβ2 vs. Dα1/Dα2/Dα3/Dβ1/Dβ2
[28] = Dα1/Dβ1/Dβ2 vs. Dα1/Dα2/Dβ1/Dβ2

## O=[N+]([O-])NC1=NCCN1Cc1ccc(Cl)nc1 [Imidacloprid, imidacloprid]
Dα1/Dα2/Dα3/Dβ1/Dβ2 vs. Dα1/Dα2/Dα4/Dβ1/Dβ2
  Difference of Imax values, nAChRs compared: -0.030
[1]
  Difference of Imax values, nAChRs compared: 0.062
  Difference of pEC50 values, nAChRs compared: 0.21
[2]
  Difference of Imax values, nAChRs compared: 0.041
  Difference of pEC50 values, nAChRs compared: -0.83
[3]
  Difference of Imax values, nAChRs compared: 0.002
  Difference of pEC50 values, nAChRs compared: -1.25
[4]
  Difference of Imax values, nAChRs compared: 0.115
  Difference of pEC50 values, nAChRs compared: -0.93
[5]
  Difference of Imax values, nAChRs compared: 0.121
  Difference of pEC50 values, nAChRs compared: -1.28
[6]
  Difference of Imax values: -0.048
  Difference of pEC50 values: 0.61
[7]
  Difference of Imax values: -0.071
  Difference of pEC50 values: 0.63
[8]
  Difference of Imax values: -0.236
  Difference of pEC50 values: -0.44
[9]
  Difference of Imax values: 0.018
  Difference of pEC50 values: 0.09
[10]
  Difference of Imax values: -0.031
  Difference of pEC50 values: 0.08
[11]
  Difference of Imax values: 0.055
  Difference of pEC50 values: -1.20
[12]
  Difference of Imax values: 0.023
  Difference of pEC50 values: -0.02
[13]
  Difference of Imax values: 0.040
  Difference of pEC50 values: -0.55
[14]
  Difference of Imax values: -0.063
  Difference of pEC50 values: -0.37
[15]
  Difference of Imax values: -0.111
  Difference of pEC50 values: 0.24
[16]
  Difference of Imax values: -0.134
  Difference of pEC50 values: 0.26
[17]
  Difference of Imax values: -0.299
  Difference of pEC50 values: -0.81
Dα1/Dα2/Dβ1 vs. Dα1/Dβ1/Dβ2
  Difference of Imax values: -0.045
  Difference of pEC50 values: -0.28
Dα1/Dα2/Dβ1 vs. Dα2/Dα3/Dβ1
  Difference of Imax values: -0.070
  Difference of pEC50 values: -0.17
[18]
  Difference of Imax values: -0.094
  Difference of pEC50 values: -0.29
Dα1/Dα2/Dβ1 vs. Dα3/Dβ1/Dβ2
  Difference of Imax values: -0.008
  Difference of pEC50 values: -1.57
[19]
  Difference of Imax values: 0.188
  Difference of pEC50 values: 1.05
[20]
  Difference of Imax values: 0.165
  Difference of pEC50 values: 1.07
[21]
  Difference of Imax values: 0.205
  Difference of pEC50 values: 0.52
[22]
  Difference of Imax values: 0.076
  Difference of pEC50 values: 0.50
[23]
  Difference of Imax values: 0.028
  Difference of pEC50 values: 1.11
Dα1/Dα3/Dβ1 vs. Dα1/Dα2/Dβ1
  Difference of Imax values: 0.139
  Difference of pEC50 values: 0.87
[24]
  Difference of Imax values: 0.005
  Difference of pEC50 values: 1.13
[25]
  Difference of Imax values: -0.160
  Difference of pEC50 values: 0.06
Dα1/Dα3/Dβ1 vs. Dα1/Dβ1/Dβ2
  Difference of Imax values: 0.094
  Difference of pEC50 values: 0.59
Dα1/Dα3/Dβ1 vs. Dα2/Dα3/Dβ1
  Difference of Imax values: 0.069
  Difference of pEC50 values: 0.70
[26]
  Difference of Imax values: 0.045
  Difference of pEC50 values: 0.58
Dα1/Dα3/Dβ1 vs. Dα3/Dβ1/Dβ2
  Difference of Imax values: 0.131
  Difference of pEC50 values: -0.70
[27]
  Difference of Imax values: -0.066
  Difference of pEC50 values: 0.52
[28]
  Difference of Imax values: -0.089
  Difference of pEC50 values: 0.54
